# Test results reported in patent US7189751B2, “Oxa(thia)zolidine compounds, process for preparation thereof and anti-inflammatory agents” (Nippon Soda Co., Ltd., priority 2001, dated 2007).
# Assays:
# [1] = target: T1, IV-cPLA(2) in activated U937 cells (Homo sapiens, UniProt P47712); test: PLA(2) activity: hydrolysis of bis-BODIPY FL C11-PC in TPA/A23187-activated U937 cells; type: cell-based; details: U-937
# T1 sequence (P47712 1-749): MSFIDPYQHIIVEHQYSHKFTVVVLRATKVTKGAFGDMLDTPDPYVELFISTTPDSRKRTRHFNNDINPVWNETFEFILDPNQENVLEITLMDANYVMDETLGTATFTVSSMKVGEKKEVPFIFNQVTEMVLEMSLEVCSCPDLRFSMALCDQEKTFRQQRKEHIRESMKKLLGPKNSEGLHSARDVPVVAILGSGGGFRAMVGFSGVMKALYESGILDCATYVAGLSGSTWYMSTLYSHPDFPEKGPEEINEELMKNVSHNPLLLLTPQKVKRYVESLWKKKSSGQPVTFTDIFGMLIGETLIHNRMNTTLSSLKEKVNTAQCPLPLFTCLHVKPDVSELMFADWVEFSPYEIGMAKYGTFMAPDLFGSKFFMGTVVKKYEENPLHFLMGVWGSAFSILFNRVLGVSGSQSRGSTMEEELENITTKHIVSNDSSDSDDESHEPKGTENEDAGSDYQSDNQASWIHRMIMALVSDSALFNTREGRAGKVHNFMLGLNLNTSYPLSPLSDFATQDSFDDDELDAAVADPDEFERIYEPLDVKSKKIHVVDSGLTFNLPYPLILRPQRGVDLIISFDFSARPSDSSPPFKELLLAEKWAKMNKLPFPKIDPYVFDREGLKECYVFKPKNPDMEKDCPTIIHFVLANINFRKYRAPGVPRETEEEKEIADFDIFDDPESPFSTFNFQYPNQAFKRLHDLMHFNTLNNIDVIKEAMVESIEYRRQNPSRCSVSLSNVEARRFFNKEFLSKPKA
# Description: The PLA(2) activity was measured by quantitatively analyzing the fluorescent product of hydrolysis from 1,2-bis-(4,4-difluoro-5,7-dimethyl-4-bora-3a,4a-diaza-s-indecene-3-undecanoyl)-sn-glycero-3-phosphocholine (hereinafter referred to bis-BODIPY®FL C11-PC, Molecular probes, Inc., B-7701) using activated U937 cells (human monoblastic lymphoma cell line) by inflammatory stimulus (Meshulam, T. et al., The journal of Biological Chemistry 267 (30): 21465–21470 (1992); and Solito, E. et al., British Journal of Pharmacology 124: 1675–1683(1998).). The substrate bis-BODIPY®FL C11-PC is incorporated into cellular membranes, the proximity of the BODIPY®FL fluorophores on adjacent phospholipid acyl chains causes fluorescence self-quenching. Separation of the fluorophores upon hydrolytic cleavage of one of the acyl chains by PLA(1) or the PLA(2) results in increased fluorescence. […]
# The test compound was dissolved with DMSO at 30 mM, and the solution diluted with either DMSO or the Assay medium before addition into the reaction mixture. […] The increased fluorescence of the hydrolysis product by the enzyme was determined by measuring the fluorescence emission intensity at 535 nm with excitation at 485 nm from the top side of each plate at 37° C., using a Multi Functional Microplate Reader SPECTRA FLUOR PLUS (TECAN Austria GmbH). […]
# [2] = system: Mouse Ear Edema Induced by TPA; test: Mouse ear edema induced by TPA; type: in vivo; details: for Ear Edema Inhibition (%): topical, ICR male mouse, 6 hours after TPA
# Description: Pharmacological Test Example 2: Mouse Ear Edema Induced by TPA
# This test was carried out referring to the method of Carlson, R. P. et al. (Agents and Actions, 17(2): 197–204 (1985).) and the method of Chang, J. (European Journal of Pharmacology, 142: 197–205 (1987).). More specifically, 5 μg/20 μL of TPA (Sigma Chemical Co.), dissolved with ethanol, was topically applied to the anterior and posterior surfaces of the right ear of an ICR-strain male mouse (6–7 weeks old). 6 hours later, the thickness of each ear at the particular part was respectively measured three times using a digimatic micrometer to calculate the mean value. Ear edema was determined by subtracting the mean thickness of the left ear as without treatment from that of the right ear as TPA-applied. Topical application activity was evaluated by applying an acetone solution of the compound of the present invention or 0.1% Tween 80/acetone solution thereof similarly to the anterior and posterior surfaces of the right ear 30 min. before and 15 min. after the TPA-application. […] Oral administration activity was evaluated by administrating 0.2% Tween 80 suspension of the compound of the present invention forcibly and perorally to the mouse an hour prior to the TPA-application. As the positive control, 100 mg/kg of Hydrocortisone (Sigma Chemical Co., H 4001) suspension was applied to the mouse similarly as for the compound of the present invention.
# [3] = system: acetic acid induced writhes; test: Acetic acid writhing; type: in vivo, mouse
# Description: Pharmacological Test Example 4: Acetic Acid Wirthing
# This test was carried out referring to the method of Inoue, K., Motonaga, A. & Nishimura, T (Arzneimittel Forshung/Drug Research, 41 (1): 235–239 (1991)). More specifically, 7.5 mL/kg of 0.9% acetic acid solution was injected intraperitoneally into an ICR-strain male mouse (5 to 7 weeks old), and the induced writhes (characteristic behaviors of convulsive contracting the abdomen, twisting the body and/or extending the legs) were observed. Number of writhes of each mouse was measured during 10 to 20 min. period after acetic acid administration. […] The analgesic activity of the compounds according to the present invention was evaluated on the basis of the degree of inhibiting the number writhes by the administration of the compounds. As the positive control, indomethacin or aspirin was administrated. The analgesic activity of the compounds according to the present invention measured in this test were exemplified in Table 7.
smiles,measurement,setting,value
"Cc1ccc(S(=O)(=O)C(C#N)=C2N[C@@H](C)[C@@H](c3ccc(Cl)cc3)O2)cc1 (relative stereo) [Compound 1-41, Cis-5-(4-chlorophenyl)-4-methyl-2-(1-(4-methylphenylsulfonyl)-1-cyanomethylene)-oxazolidine]",inhibition at 0.1 µM,[1],100%
same,Ear Edema Inhibition (%),[2]; 1 mg/40 μL/ear × 2,80.5%
same,Number of writhes (Mean ± S.E.),"[3]; i.p. 1 mg/kg, 30 min before, vehicle i.p. 25.2 ± 2.2",4.0 ± 1.9
same,Number of writhes (Mean ± S.E.),"[3]; p.o. 10 mg/kg, 120 min before, vehicle p.o. 23.5 ± 3.1",1.3 ± 0.8
"CC(=O)Oc1ccccc1C(=O)O [Aspirin, aspirin]",Number of writhes (Mean ± S.E.),"[3]; i.p. 30 mg/kg, 30 min before, vehicle i.p. 25.2 ± 2.2",9.5 ± 2.0
same,Number of writhes (Mean ± S.E.),"[3]; p.o. 100 mg/kg, 60 min before",9.5 ± 1.9
"COc1ccc2c(c1)c(CC(=O)O)c(C)n2C(=O)c1ccc(Cl)cc1 [Indomethacin, indomethacin]",intoxicated symptoms,[2]; mice of the TPA ear edema test,showed intoxicated symptoms
same,body weight after 24 hours,[2]; mice of the TPA ear edema test,reduced
same,Ear Edema Inhibition (%),[2]; 3 mg/40 μL/ear × 2,63.5%
same,Number of writhes (Mean ± S.E.),"[3]; i.p. 3 mg/kg, 30 min before, vehicle i.p. 25.2 ± 2.2",13.8 ± 3.0
same,Number of writhes (Mean ± S.E.),"[3]; i.p. 10 mg/kg, 30 min before, vehicle i.p. 25.2 ± 2.2",4.8 ± 0.9
same,Number of writhes (Mean ± S.E.),"[3]; p.o. 3 mg/kg, 60 min before",6.8 ± 2.0
"CC(=O)OCC(=O)[C@@]1(O)[C@H](C)C[C@H]2[C@@H]3CCC4=CC(=O)C=C[C@]4(C)[C@@]3(F)[C@@H](O)C[C@@]21C [DEX-Ac, Dexamathasone-21-acetate]",body weight after 24 hours,[2]; mice of the TPA ear edema test,reduced
same,Ear Edema Inhibition (%),[2]; 1 mg/20 μL/ear × 2,79.6%
